Data published in ChEMBL document CHEMBL1201861, “Genomics of Drug Sensitity in Cancer screening data, Wellcome Trust Sanger Institute”.

Tests used:
Experiment in all cases: cells
SK-NEP-1 = format: functional, cell-based, Homo sapiens; conditions: Homo sapiens, SK-NEP-1;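 note: growth inhibition of human SK-NEP-1 cells, read out by a cell viability assay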
Description: SANGER: Inhibition of human SK-NEP-1 cell growth in a cell viability assay.

8-MG-BA = format: functional, cell-based, Homo sapiens; conditions: Homo sapiens, 8-MG-BA;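 note: growth inhibition of 8-MG-BA cells, read out with a cell viability assay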
Description: SANGER: Inhibition of human 8-MG-BA cell growth in a cell viability assay.

RCC10RGB = format: functional, cell-based, Homo sapiens; conditions: Homo sapiens, RCC10RGB;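 note: growth inhibition of human RCC10RGB cells, read out by a cell viability assay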
Description: SANGER: Inhibition of human RCC10RGB cell growth in a cell viability assay.

MEG-01 = format: functional, cell-based, Homo sapiens; conditions: Homo sapiens, MEG-01;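 note: growth inhibition of MEG-01 cells, read out by a cell viability assay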
Description: SANGER: Inhibition of human MEG-01 cell growth in a cell viability assay.

LNCaP-Clone-FGC = format: functional, cell-based, Homo sapiens; conditions: Homo sapiens, LNCaP-Clone-FGC
Description: SANGER: Inhibition of human LNCaP-Clone-FGC cell growth in a cell viability assay.

HAL-01 = format: functional, cell-based, Homo sapiens; conditions: Homo sapiens, HAL-01;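 note: growth inhibition of human HAL-01 cells, read out with a cell viability assay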
Description: SANGER: Inhibition of human HAL-01 cell growth in a cell viability assay.

ML-2 = format: functional, cell-based, Homo sapiens; conditions: Homo sapiens, ML-2;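 note: growth inhibition of ML-2 cells, measured with a cell viability readout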
Description: SANGER: Inhibition of human ML-2 cell growth in a cell viability assay.

GOTO = format: functional, cell-based, Homo sapiens; conditions: Homo sapiens, GOTO;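 note: growth inhibition of GOTO cells, read out by a cell viability assay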
Description: SANGER: Inhibition of human GOTO cell growth in a cell viability assay.

L-363 = format: functional, cell-based, Homo sapiens; conditions: Homo sapiens, L-363
Description: SANGER: Inhibition of human L-363 cell growth in a cell viability assay.

TE-6 = format: functional, cell-based, Homo sapiens; conditions: Homo sapiens, TE-6;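 note: growth inhibition of TE-6 cells, read out with a cell viability assay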
Description: SANGER: Inhibition of human TE-6 cell growth in a cell viability assay.

SNU-5 = format: functional, cell-based, Homo sapiens; conditions: Homo sapiens, SNU-5;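 note: cell viability readout used to measure growth inhibition in human NCI-SNU-5 cells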
Description: SANGER: Inhibition of human NCI-SNU-5 cell growth in a cell viability assay.

RH-1 = format: functional, cell-based, Homo sapiens; conditions: Homo sapiens, RH-1;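 note: growth inhibition of human RH-1 cells, read out with a cell viability assay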
Description: SANGER: Inhibition of human RH-1 cell growth in a cell viability assay.

Becker = format: functional, cell-based, Homo sapiens; conditions: Homo sapiens, Becker;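 note: growth inhibition of Becker cells, read out with a cell viability assay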
Description: SANGER: Inhibition of human Becker cell growth in a cell viability assay.

LU-139 = format: functional, cell-based, Homo sapiens; conditions: Homo sapiens, LU-139
Description: SANGER: Inhibition of human LU-139 cell growth in a cell viability assay.

NCI-H526 = format: functional, cell-based, Homo sapiens; conditions: Homo sapiens, NCI-H526;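 note: growth inhibition of the human NCI-H526 cell line, measured by a cell viability assay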
Description: SANGER: Inhibition of human NCI-H526 cell growth in a cell viability assay.

TE-1 = format: functional, cell-based, Homo sapiens; conditions: Homo sapiens, TE-1;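 note: growth inhibition of the human TE-1 cell line, read out with a cell viability assay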
Description: SANGER: Inhibition of human TE-1 cell growth in a cell viability assay.

CTB-1 = format: functional, cell-based, Homo sapiens; conditions: Homo sapiens, CTB-1
Description: SANGER: Inhibition of human CTB-1 cell growth in a cell viability assay.

IST-MES1 = format: functional, cell-based, Homo sapiens; conditions: Homo sapiens, IST-MES1;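 note: growth inhibition of IST-MES1 cells, measured with a cell viability assay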
Description: SANGER: Inhibition of human IST-MES1 cell growth in a cell viability assay.

J-RT3-T3-5 = format: functional, cell-based, Homo sapiens; conditions: Homo sapiens, J-RT3-T3-5;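 note: cell viability assay measuring growth inhibition of human J-RT3-T3-5 cells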
Description: SANGER: Inhibition of human J-RT3-T3-5 cell growth in a cell viability assay.

CW-2 = format: functional, cell-based, Homo sapiens; conditions: Homo sapiens, CW-2;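 note: growth inhibition of CW-2 cells, read out by a cell viability assay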
Description: SANGER: Inhibition of human CW-2 cell growth in a cell viability assay.

NB12 = format: functional, cell-based, Homo sapiens; conditions: Homo sapiens, NB12;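 note: growth inhibition of human NB12 cells, read out by a cell viability assay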
Description: SANGER: Inhibition of human NB12 cell growth in a cell viability assay.

HCC1187 = format: functional, cell-based, Homo sapiens; conditions: Homo sapiens, HCC1187;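 note: growth inhibition of HCC1187 cells, read out with a cell viability assay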
Description: SANGER: Inhibition of human HCC1187 cell growth in a cell viability assay.

BB65-RCC = format: functional, cell-based, Homo sapiens; conditions: Homo sapiens, BB65-RCC;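 note: growth inhibition of the cell line, measured with a cell viability assay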
Description: SANGER: Inhibition of human BB65-RCC cell growth in a cell viability assay.

NMC-G1 = format: functional, cell-based, Homo sapiens; conditions: Homo sapiens, NMC-G1;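 note: growth inhibition of the NMC-G1 cell line, measured with a cell viability read-out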
Description: SANGER: Inhibition of human NMC-G1 cell growth in a cell viability assay.

C8166 = format: functional, cell-based, Homo sapiens; conditions: Homo sapiens, C8166;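 note: growth inhibition of human C8166 cells measured by a cell viability assay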
Description: SANGER: Inhibition of human C8166 cell growth in a cell viability assay.

MOLT-16 = format: functional, cell-based, Homo sapiens; conditions: Homo sapiens, MOLT-16;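 note: growth inhibition of human MOLT-16 cells, read out with a cell viability assay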
Description: SANGER: Inhibition of human MOLT-16 cell growth in a cell viability assay.

ONS-76 = format: functional, cell-based, Homo sapiens; conditions: Homo sapiens, ONS-76;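 note: growth inhibition of human ONS-76 cells, read out with a cell viability assay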
Description: SANGER: Inhibition of human ONS-76 cell growth in a cell viability assay.

BV-173 = format: functional, cell-based, Homo sapiens; conditions: Homo sapiens, BV-173
Description: SANGER: Inhibition of human BV-173 cell growth in a cell viability assay.

LS-123 = format: functional, cell-based, Homo sapiens; conditions: Homo sapiens, LS-123
Description: SANGER: Inhibition of human LS-123 cell growth in a cell viability assay.

COLO-824 = format: functional, cell-based, Homo sapiens; conditions: Homo sapiens, COLO-824
Description: SANGER: Inhibition of human COLO-824 cell growth in a cell viability assay.

COLO-684 = format: functional, cell-based, Homo sapiens; conditions: Homo sapiens, COLO-684
Description: SANGER: Inhibition of human COLO-684 cell growth in a cell viability assay.

MFM-223 = format: functional, cell-based, Homo sapiens; conditions: Homo sapiens, MFM-223
Description: SANGER: Inhibition of human MFM-223 cell growth in a cell viability assay.

NH-12 = format: functional, cell-based, Homo sapiens; conditions: Homo sapiens, NH-12;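 note: growth inhibition of NH-12 cells, read out with a cell viability assay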
Description: SANGER: Inhibition of human NH-12 cell growth in a cell viability assay.

D-247MG = format: functional, cell-based, Homo sapiens; conditions: Homo sapiens, D-247MG
Description: SANGER: Inhibition of human D-247MG cell growth in a cell viability assay.

RPMI-8866 = format: functional, cell-based, Homo sapiens; conditions: Homo sapiens, RPMI-8866
Description: SANGER: Inhibition of human RPMI-8866 cell growth in a cell viability assay.

LB373-MEL-D = format: functional, cell-based, Homo sapiens; conditions: Homo sapiens, LB373-MEL-D;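 note: growth inhibition of the cell line, read out in a cell viability assay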
Description: SANGER: Inhibition of human LB373-MEL-D cell growth in a cell viability assay.

EW-11 = format: functional, cell-based, Homo sapiens; conditions: Homo sapiens, EW-11;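 note: growth inhibition of human EW-11 cells, measured with a cell viability assay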
Description: SANGER: Inhibition of human EW-11 cell growth in a cell viability assay.

BE-13 = format: functional, cell-based, Homo sapiens; conditions: Homo sapiens, BE-13;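 note: growth inhibition of human BE-13 cells, measured with a cell viability assay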
Description: SANGER: Inhibition of human BE-13 cell growth in a cell viability assay.

HuTu80 = format: functional, cell-based, Homo sapiens, HUTU-80; conditions: Homo sapiens, HuTu80;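 note: growth inhibition of HuTu80 human cells, determined with a cell viability readout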
Description: SANGER: Inhibition of human HUTU-80 cell growth in a cell viability assay.

D-263MG = format: functional, cell-based, Homo sapiens; conditions: Homo sapiens, D-263MG
Description: SANGER: Inhibition of human D-263MG cell growth in a cell viability assay.

DMS-79 = format: functional, cell-based, Homo sapiens; conditions: Homo sapiens, DMS-79;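 note: growth inhibition measured with a cell viability assay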
Description: SANGER: Inhibition of human DMS-79 cell growth in a cell viability assay.

KY821 = format: functional, cell-based, Homo sapiens; conditions: Homo sapiens, KY821;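 note: growth inhibition of human KY821 cells, read out by a cell viability assay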
Description: SANGER: Inhibition of human KY821 cell growth in a cell viability assay.

KARPAS-45 = format: functional, cell-based, Homo sapiens; conditions: Homo sapiens, KARPAS-45;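 note: inhibition of cell line growth, read out through a viability assay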
Description: SANGER: Inhibition of human KARPAS-45 cell growth in a cell viability assay.

JAR = format: functional, cell-based, Homo sapiens; conditions: Homo sapiens, JAR;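 note: growth inhibition of human JAR cells determined with a cell viability assay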
Description: SANGER: Inhibition of human JAR cell growth in a cell viability assay.

SK-N-FI = format: functional, cell-based, Homo sapiens; conditions: Homo sapiens, SK-N-FI;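 note: cell viability assay measuring growth inhibition of human SK-N-FI cells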
Description: SANGER: Inhibition of human SK-N-FI cell growth in a cell viability assay.

Compound: C#Cc1cccc(Nc2ncnc3cc(OCCOC)c(OCCOC)cc23)c1 [ERLOTINIB]
- IC50 (SK-NEP-1): > 2 µM
- IC50 (8-MG-BA): > 2 µM
- IC50 (RCC10RGB): > 2 µM
- IC50 (MEG-01): > 2 µM
- IC50 (LNCaP-Clone-FGC): > 2 µM
- IC50 (HAL-01): > 2 µM
- IC50 (ML-2): > 2 µM
- IC50 (GOTO): > 2 µM
- IC50 (L-363): > 2 µM
- IC50 (TE-6): > 2 µM
- IC50 (SNU-5): > 2 µM
- IC50 (RH-1): > 2 µM
- IC50 (Becker): > 2 µM
- IC50 (LU-139): > 2 µM
- IC50 (NCI-H526): > 2 µM
- IC50 (TE-1): 1.4 µM
- IC50 (CTB-1): > 2 µM
- IC50 (IST-MES1): > 2 µM
- IC50 (J-RT3-T3-5): > 2 µM
- IC50 (CW-2): > 2 µM
- IC50 (NB12): > 2 µM
- IC50 (HCC1187): > 2 µM
- IC50 (BB65-RCC): > 2 µM
- IC50 (NMC-G1): > 2 µM
- IC50 (C8166): > 2 µM
- IC50 (MOLT-16): 1.93 µM
- IC50 (ONS-76): > 2 µM
- IC50 (BV-173): > 2 µM
- IC50 (LS-123): > 2 µM
- IC50 (COLO-824): > 2 µM
- IC50 (COLO-684): > 2 µM
- IC50 (MFM-223): > 2 µM
- IC50 (NH-12): > 2 µM
- IC50 (D-247MG): > 2 µM
- IC50 (RPMI-8866): > 2 µM
- IC50 (LB373-MEL-D): > 2 µM
- IC50 (EW-11): > 2 µM
- IC50 (BE-13): > 2 µM
- IC50 (HuTu80): > 2 µM
- IC50 (D-263MG): > 2 µM
- IC50 (DMS-79): > 2 µM

Compound: COc1cc(N2CCN(C)CC2)ccc1Nc1ncc2c(n1)N(C)c1ccccc1C(=O)N2C
- IC50 (SK-NEP-1): > 8 µM
- IC50 (8-MG-BA): > 8 µM
- IC50 (RCC10RGB): > 8 µM
- IC50 (MEG-01): 4.76 µM
- IC50 (LNCaP-Clone-FGC): > 8 µM
- IC50 (HAL-01): 2.12 µM
- IC50 (ML-2): 7.33 µM
- IC50 (GOTO): > 8 µM
- IC50 (L-363): > 8 µM
- IC50 (TE-6): > 8 µM
- IC50 (KY821): > 8 µM
- IC50 (SNU-5): > 8 µM
- IC50 (RH-1): > 8 µM
- IC50 (Becker): 7.46 µM
- IC50 (LU-139): 6.86 µM
- IC50 (NCI-H526): > 8 µM
- IC50 (TE-1): > 8 µM
- IC50 (CTB-1): 7.52 µM
- IC50 (KARPAS-45): 3.97 µM
- IC50 (IST-MES1): > 8 µM
- IC50 (J-RT3-T3-5): > 8 µM
- IC50 (JAR): > 8 µM
- IC50 (CW-2): > 8 µM
- IC50 (NB12): > 8 µM
- IC50 (HCC1187): > 8 µM
- IC50 (BB65-RCC): > 8 µM
- IC50 (NMC-G1): > 8 µM
- IC50 (C8166): > 8 µM
- IC50 (MOLT-16): 2.71 µM
- IC50 (ONS-76): > 8 µM
- IC50 (BV-173): 7.43 µM
- IC50 (LS-123): > 8 µM
- IC50 (COLO-824): > 8 µM
- IC50 (COLO-684): > 8 µM
- IC50 (MFM-223): > 8 µM
- IC50 (NH-12): > 8 µM
- IC50 (D-247MG): 1.58 µM
- IC50 (RPMI-8866): > 8 µM
- IC50 (LB373-MEL-D): > 8 µM
- IC50 (SK-N-FI): > 8 µM
- IC50 (EW-11): > 8 µM
- IC50 (BE-13): > 8 µM
- IC50 (HuTu80): > 8 µM
- IC50 (D-263MG): > 8 µM
- IC50 (DMS-79): > 8 µM
